Consider eleven molecules from ChEMBL document CHEMBL1201862, “PubChem BioAssay data set” (2004).

Among the test systems are A498; A549; ACHN; BT-549; CCRF-CEM; DU-145; EKVX; HOP-62; LOX IMVI; M14; MDA-MB-435; MDA-N; NCI-H522; SF-268; SF-539; SK-MEL-2; SN12C; SNB-19; RXF 393; SR.
What all share (test): DTP human tumour cell line panel, 48 h

SMILES strings stand for the structures.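 Following 48 hours of exposure in 96-well plates, responses at five concentrations were used to interpolate endpoints linearly. GI50 = concentration required for 50% inhibition of growth.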 The source made the active and inactive calls. Rule as the data show it: active = GI50 up to about 1.1 µM and inactive = higher.

As a reminder, the GI50 is the concentration at which growth is held to half of that of the control. On to `c1ccc(CCCN2C3CCC2CN(CCOC(c2ccccc2)c2ccccc2)C3)cc1`, for which the GI50 in the test on A498 was 10.1 µM (inactive); in the test with A549 it was 13.3 µM (inactive); in the test on ACHN, 13.4 µM (inactive); with BT-549 it was 12.4 µM (inactive); in the test with CCRF-CEM, 9.82 µM (inactive); in the test on DU-145, 16.4 µM (inactive). In addition, the GI50 with EKVX was 7.46 µM (inactive); in the test on HOP-62, 13.5 µM (inactive); with LOX IMVI it was 12.1 µM (inactive); with M14 it was 4.99 µM (inactive); with MDA-MB-435 it was 12.4 µM (inactive); in the test with MDA-N, 13.2 µM (inactive). The GI50 is 10.9 µM (inactive) in the test on NCI-H522; 14 µM (inactive) with SF-268; 8.39 µM (inactive) with SF-539; 10.6 µM (inactive) with SK-MEL-2; 12.1 µM (inactive) with SN12C; 14.6 µM (inactive) in the test with SNB-19.
Regarding `C=C(CCC/C(C)=C/C=C/[C@]1(C)CCCc2ccoc21)CC(=O)O`, the GI50 with A498 is > 100 µM (inactive); with A549, > 100 µM (inactive); in the test with ACHN, > 100 µM (inactive); in the test with BT-549, 79.1 µM (inactive); in the test with CCRF-CEM it was 50 µM (inactive); with DU-145 it was 42.5 µM (inactive). The GI50 with EKVX, in the test on HOP-62, in the test on LOX IMVI, in the test with M14, in the test with MDA-MB-435 and in the test with NCI-H522 was > 100 µM (inactive) each time. In addition, the GI50 in the test on RXF 393, in the test with SF-268, in the test with SF-539, in the test with SK-MEL-2, with SN12C and in the test on SNB-19 was > 100 µM (inactive) each time. The GI50 with SR was 39.3 µM (inactive).
Consider `Cn1c(=O)c2c(no[n+]2[O-])c2ccccc21`, for which the GI50 is 31.9 µM (inactive) in the test with A498; 23.3 µM (inactive) in the test with A549; 26.5 µM (inactive) in the test on ACHN; 15 µM (inactive) with BT-549; 12.8 µM (inactive) in the test on CCRF-CEM; 18.3 µM (inactive) in the test on EKVX. In addition, the GI50 in the test on HOP-62 was 17.3 µM (inactive); with LOX IMVI, 10.9 µM (inactive); in the test with M14, 12.4 µM (inactive); with MDA-MB-435, 24.8 µM (inactive); in the test with MDA-N it was 26.4 µM (inactive); in the test with NCI-H522, 13.6 µM (inactive). The GI50 in the test with RXF 393 is 19.9 µM (inactive); in the test with SF-268, 20.5 µM (inactive); in the test on SF-539 it was 25.8 µM (inactive); in the test with SK-MEL-2, 12.4 µM (inactive); with SN12C, 22.8 µM (inactive); with SNB-19, 26.4 µM (inactive). Besides, the GI50 in the test on SR was 5 µM (inactive).
For the molecule `COc1cc2c(cc1OC)C1c3ccccc3CCN1CC2` (centres undefined), the GI50 in the test on A498, with A549, in the test on ACHN, in the test with CCRF-CEM, in the test with DU-145 and with EKVX was > 100 µM (inactive) each time. Further, the GI50 in the test on HOP-62 is 70.8 µM (inactive); with LOX IMVI, 48.6 µM (inactive); in the test on M14, 45 µM (inactive); in the test with MDA-MB-435 it was 37.2 µM (inactive); in the test on MDA-N, 41.1 µM (inactive); with NCI-H522, > 100 µM (inactive). For the same molecule, the GI50 was > 100 µM (inactive) with RXF 393; > 100 µM (inactive) with SF-268; 31.1 µM (inactive) in the test with SF-539; > 100 µM (inactive) in the test on SK-MEL-2; 62.5 µM (inactive) in the test on SN12C; > 100 µM (inactive) in the test on SNB-19. The GI50 with SR was > 100 µM (inactive).
Consider `COc1ccc(N2/C(=N/c3ccccc3)SC(=N/S(=O)(=O)c3ccccc3)/C2=N\S(=O)(=O)c2ccccc2)cc1`, for which the GI50 in the test with A498 is 20.1 µM (inactive); with A549, 18.5 µM (inactive); in the test with ACHN it was 23.3 µM (inactive); in the test with BT-549, 24.3 µM (inactive); in the test on CCRF-CEM, 20 µM (inactive); in the test with EKVX, 22.6 µM (inactive). Also, the GI50 in the test on HOP-62 is 26.7 µM (inactive); in the test with M14, 33.7 µM (inactive); with RXF 393, 12.8 µM (inactive); in the test on SN12C it was 15.8 µM (inactive); with SNB-19, 18.7 µM (inactive); with SR it was 16.8 µM (inactive).
For `COC(=O)c1c(C)cccc1/C=C1\Cc2ccc(C)c(C)c2C1=O`, the GI50 in the test on A498 is 31 µM (inactive); with A549, > 100 µM (inactive); with ACHN it was > 100 µM (inactive); with BT-549 it was > 100 µM (inactive); in the test with CCRF-CEM, > 10 µM (inactive); in the test on DU-145, > 100 µM (inactive). The GI50 in the test on EKVX is > 100 µM (inactive); with HOP-62 it was 41.7 µM (inactive); in the test on LOX IMVI, > 100 µM (inactive); with M14, 52.4 µM (inactive); in the test with MDA-N it was > 100 µM (inactive); in the test on NCI-H522 it was 78.9 µM (inactive). Also, the GI50 was 86.5 µM (inactive) in the test on RXF 393; 67.5 µM (inactive) in the test on SF-268; > 100 µM (inactive) in the test with SF-539; > 100 µM (inactive) in the test with SK-MEL-2; > 100 µM (inactive) in the test on SN12C; 52.5 µM (inactive) with SNB-19. In addition, the GI50 in the test with SR is 8.39 µM (inactive).
On to `CCOC(=O)N1C=CC(=C2C(=C3C=CN(C(=O)OCC)C=C3)C(=C3C=CN(C(=O)OCC)C=C3)C2=C2C=CN(C(=O)OCC)C=C2)C=C1`, for which the GI50 with A549 is 24.4 µM (inactive); in the test on ACHN it was 2.98 µM (inactive); with BT-549 it was 40.5 µM (inactive); in the test on DU-145 it was 35.3 µM (inactive); in the test on EKVX, 48.5 µM (inactive); with HOP-62, 25.9 µM (inactive). In addition, the GI50 in the test on LOX IMVI is 12.2 µM (inactive); with M14, 28.3 µM (inactive); in the test with MDA-MB-435, 22.2 µM (inactive); in the test with NCI-H522 it was 19.1 µM (inactive); in the test with RXF 393 it was 51.5 µM (inactive); in the test on SF-268 it was 31.5 µM (inactive). Besides, the GI50 was 25 µM (inactive) in the test with SF-539; 26.8 µM (inactive) in the test with SK-MEL-2; 20.2 µM (inactive) in the test on SN12C; 64.6 µM (inactive) in the test on SNB-19; 6.24 µM (inactive) in the test on SR.
As for `CC(C)(C)C1=CC(O)(c2c3ccccc3c(C3(O)C=C(C(C)(C)C)C(=O)C(C(C)(C)C)=C3)c3ccccc23)C=C(C(C)(C)C)C1=O`, the GI50 was 0.116 µM (active) in the test on A498; > 100 µM (inactive) in the test on A549; > 100 µM (inactive) in the test on ACHN; > 100 µM (inactive) in the test with BT-549; 50.2 µM (inactive) with CCRF-CEM; > 100 µM (inactive) with DU-145. For the same molecule, the GI50 was > 100 µM (inactive) in the test with EKVX; > 100 µM (inactive) in the test on HOP-62; > 100 µM (inactive) with LOX IMVI; > 100 µM (inactive) in the test on M14; < 0.01 µM (active) in the test on MDA-MB-435; > 100 µM (inactive) with MDA-N. Also, the GI50 in the test on NCI-H522, with SF-268, in the test with SF-539, with SK-MEL-2, in the test on SN12C and in the test with SNB-19 was > 100 µM (inactive) in each case.
Take `COC(=O)C(=O)C(C(=O)C(=O)Nc1ccc(C)cc1C)c1nc2ccc(Cl)cc2nc1O` (centres undefined): the GI50 in the test with A549 was > 100 µM (inactive); in the test on ACHN, > 100 µM (inactive); in the test with BT-549, > 100 µM (inactive); in the test with CCRF-CEM it was > 100 µM (inactive); in the test on DU-145, > 100 µM (inactive); with EKVX, 34.6 µM (inactive). The GI50 with HOP-62, with LOX IMVI, in the test on M14, with MDA-MB-435, in the test on MDA-N and in the test on NCI-H522 was > 100 µM (inactive) in each case. The GI50 with RXF 393, in the test on SF-268, with SF-539, with SK-MEL-2, with SN12C and in the test with SNB-19 was > 100 µM (inactive) each time.
With `COC(=O)C(Cc1nc2ccccc2nc1O)C(=O)C(=O)Nc1cc(C(F)(F)F)ccc1Cl` (centres undefined), the GI50 was 24 µM (inactive) in the test on A498; 69.2 µM (inactive) in the test on A549; 12.1 µM (inactive) in the test with ACHN; 14.9 µM (inactive) with BT-549; 1.51 µM (inactive) with CCRF-CEM; 15 µM (inactive) with EKVX. Moreover, the GI50 in the test with HOP-62 was 17.4 µM (inactive); with LOX IMVI it was 16.2 µM (inactive); with M14, 16.7 µM (inactive); in the test on MDA-MB-435 it was 19.4 µM (inactive); in the test with MDA-N, 25.9 µM (inactive); in the test on NCI-H522, 3.87 µM (inactive). Besides, the GI50 is 13.8 µM (inactive) with RXF 393; 14.2 µM (inactive) with SF-268; 16.1 µM (inactive) in the test with SK-MEL-2; 20.5 µM (inactive) with SN12C; 4.58 µM (inactive) in the test on SR.
Take `OC1CCC(C2C3CCCCC3C3CCCCC3C2C2CCC(O)CC2)CC1` (centres undefined): the GI50 is 15.8 µM (inactive) in the test with A498; 4.18 µM (inactive) in the test with A549; 2.98 µM (inactive) in the test on ACHN; 3.89 µM (inactive) with BT-549; 5.37 µM (inactive) in the test with DU-145; 9.89 µM (inactive) in the test on EKVX. Further, the GI50 with HOP-62 is 5.04 µM (inactive); in the test on LOX IMVI, 2.31 µM (inactive); with M14, 5.19 µM (inactive); in the test on MDA-MB-435 it was 4.19 µM (inactive); in the test on NCI-H522, 2.34 µM (inactive); with RXF 393, 2.9 µM (inactive). Besides, the GI50 was 2.99 µM (inactive) in the test on SF-268; 10.6 µM (inactive) with SF-539; 5.56 µM (inactive) in the test on SK-MEL-2; 5.13 µM (inactive) with SN12C; 6.44 µM (inactive) in the test with SNB-19; 4.16 µM (inactive) in the test with SR.
